System: NCI-H211 tumor spheroids, viability percent test/control
Experiment: Anticancer human tumor NCI-H211 cell line growth inhibition;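 further: spheroids exposed to agents for seven days before readout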
Conditions: spheroids with HUVEC and MSC; for IC50: curve of first compound; for viability, T/C: stronger effect = lower value
Text: Multicellular complex tumor spheroid response to DNA repair inhibitors in combination with DNA-damaging drugs
This study explores the anticancer activities of DNA-damaging drugs and inhibitors of DNA damage repair, both as single agents and in combinations. Complex tumor spheroids comprised of malignant cells, endothelial cells and mesenchymal stem cells served as an in vitro model for human solid tumors. This model system incorporates physiologically relevant features and patient-derived or established malignant cell lines with clinically relevant genetic alterations from many tumor types. Twenty-six patient-derived or established malignant cell lines were evaluated representing sarcoma, melanoma, small cell lung cancer (SCLC), non-small cell lung cancer (NSCLC), as well as bladder, ovarian and pancreatic cancers. The concentration ranges selected for each drug and investigational agent were based upon clinically achievable concentrations if the clinical Cmax of the agent was known.
Compounds. The drugs and compounds olaparib (NSC753686), talazoparib (NSC767125), berzosertib (NSC777718), elimusertib (NSC800525), nedisertib (NSC802822), VX-984 (NSC792969), AZD-1390 (NSC803789), temozolomide (NSC362856), topotecan (NSC609699), trabectedin (NSC813783), staurosporine (NSC755774), and gemcitabine (NSC613327) were obtained from the National Cancer Institute (NCI) Developmental Therapeutics Program Chemical Repository. The FDA-approved anticancer drug set is available from the Developmental Therapeutics Program at https://dtp.cancer.gov/organization/dscb/obtaining/available_plates.htm. […] The stock solutions were prepared in dimethyl sulfoxide (DMSO, Sigma-Aldrich, St. Louis, MO, cat. D2650) at 400-fold the tested concentration and stored at -70 degrees C. Prior to their use, the stock solutions were diluted in fresh medium and the final DMSO concentration in the assay was 0.25% (v/v). All drugs and investigational agents were tested over a range starting from a high concentration at or near the clinical Cmax and decreasing in half-log increments. If the clinical Cmax for an agent had not been determined, the highest concentration tested was 10 microM.
Cell Lines. The patient-derived cancer cell (PDC) lines: 156681-154-R-J1-PDC, 283228-195-R-J1-PDC, 287954-098-R-J1-PDC, 292921-168-R-J2-PDC, 349418-098-R-PDC, 425362-245-T-J1-PDC, 556581-035-R-J1-PDC, and BL0293-F563-PDC were received from the NCI Patient-Derived Models Repository (PDMR, https://pdmr.cancer.gov). The established cell lines HS-SY-2 (RRID:CVCL_8719), MPNST, and SYO-1 (RRID:CVCL_7146) were obtained from the Sloan Kettering Institute. The alveolar soft parts sarcoma cell line ASPS-1 (RRID:CVCL_S738) was established at the NCI and grown from internal seed stocks. The following established cell lines were purchased from the American Type Culture Collection (ATCC, Manassas, VA): G-401 (ATCC, cat. CRL-1441, RRID:CVCL_0270), SW982 (ATCC, cat. HTB-93, RRID:CVCL_1734), VA-ES-BJ (ATCC, cat. CRL-2138, RRID:CVCL_1785), NCI-H719 (ATCC, cat. CRL-5837, RRID:CVCL_1582), NCI-H196 (ATCC, cat. CRL-5823, RRID:CVCL_1509), NCI-H841 (ATCC, cat. CRL-5845, RRID:CVCL_1595), NCI-H1618 (ATCC, cat. CRL-5879, RRID:CVCL_1480), NCI-H1876 (ATCC, cat. CRL-5902, RRID:CVCL_1503), DMS 114 (ATCC, cat. CRL-2066; RRID:CVCL_1174), NCI-H211 (ATCC, cat. CRL-5824; RRID:CVCL_1529), and SW 1271 (ATCC, cat. CRL-2177, RRID:CVCL_1716). The small cell lung cancer cell line COR-L88 was purchased from Sigma-Aldrich (cat. 92031917-1VL, RRID:CVCL_1141). The non-small cell lung cancer cell lines NCI-H226 (RRID:CVCL_1544) and NCI-H322M (RRID:CVCL_1557) were established at the NCI and grown from internal seed stocks. Pooled donor human umbilical vein endothelial cells (HUVEC, Lonza, cat. CC-2519) and human mesenchymal stem cells (hMSC, Lonza, cat. PT-2501) were purchased from Lonza (Walkersville, MD).
Cell Culture. All cells were maintained in an incubator at 37 degrees C and 5% CO2 with 95% humidity. […]

O=C(c1cc(Cc2n[nH]c(=O)c3ccccc23)ccc1F)N1CCN(C(=O)C2CC2)CC1 + COc1cc2c(cc1O)CCNC21CSC2c3c(OC(C)=O)c(C)c4c(c3C(COC1=O)N1C(O)C3Cc5cc(C)c(OC)c(O)c5C(C21)N3C)OCO4
IC50 (second compound 30 pM): 95.2 nM
IC50 (second compound 94.9 pM): < 94.9 nM
IC50 (second compound 0.0003 µM): < 94.9 nM
IC50 (second compound 0.000949 µM): < 94.9 nM
IC50 (second compound 0.003 µM): < 94.9 nM
viability, T/C (second compound 30 pM, first compound 0.0949 µM): 50.5%
viability, T/C (second compound 30 pM, first compound 0.3 µM): 16.1%
viability, T/C (second compound 30 pM, first compound 0.949 µM): 1.62%
viability, T/C (second compound 30 pM, first compound 3 µM): 0.78%
viability, T/C (second compound 30 pM, first compound 9.49 µM): 0.73%
viability, T/C (second compound 30 pM, first compound 30 µM): 0.73%
viability, T/C (second compound 94.9 pM, first compound 0.0949 µM): 2.31%
viability, T/C (second compound 94.9 pM, first compound 0.3 µM): 1.2%
viability, T/C (second compound 94.9 pM, first compound 0.949 µM): 0.86%
viability, T/C (second compound 94.9 pM, first compound 3 µM): 0.78%
viability, T/C (second compound 94.9 pM, first compound 9.49 µM): 0.78%
viability, T/C (second compound 94.9 pM, first compound 30 µM): 0.95%
viability, T/C (second compound 0.0003 µM, first compound 0.0949 µM): 1.39%
viability, T/C (second compound 0.0003 µM, first compound 0.3 µM): 0.85%
viability, T/C (second compound 0.0003 µM, first compound 0.949 µM): 0.91%
viability, T/C (second compound 0.0003 µM, first compound 3 µM): 0.8%
viability, T/C (second compound 0.0003 µM, first compound 9.49 µM): 1.69%
viability, T/C (second compound 0.0003 µM, first compound 30 µM): 0.79%
viability, T/C (second compound 0.000949 µM, first compound 0.0949 µM): 0.69%
viability, T/C (second compound 0.000949 µM, first compound 0.3 µM): 1.29%
viability, T/C (second compound 0.000949 µM, first compound 0.949 µM): 1.05%
viability, T/C (second compound 0.000949 µM, first compound 3 µM): 0.61%
viability, T/C (second compound 0.000949 µM, first compound 9.49 µM): 0.73%
viability, T/C (second compound 0.000949 µM, first compound 30 µM): 0.72%
viability, T/C (second compound 0.003 µM, first compound 0.0949 µM): 0.44%
viability, T/C (second compound 0.003 µM, first compound 0.3 µM): 0.28%
viability, T/C (second compound 0.003 µM, first compound 0.949 µM): 0.1%
viability, T/C (second compound 0.003 µM, first compound 3 µM): 0.21%
viability, T/C (second compound 0.003 µM, first compound 9.49 µM): 0.25%
viability, T/C (second compound 0.003 µM, first compound 30 µM): 0.2%
